# Laboratory results from US20250090529A1, “USE OF SHP2 INHIBITORS FOR THE TREATMENT OF INSULIN RESISTANCE” (INSERM (INSTITUT NATIONAL DE LA SANTÉ ET DE LA RECHERCHE …, priority 2018, published 2025).
# Assays:
# Obese diabetic mice = test: OGTT in obese diabetic mice after chronic SHP2 inhibition; conditions: gavage 50 mg/kg/day
# Description: Obese diabetic mice were treated by gavage (50 mg/kg/day). After 15 days of treatment an OGTT was performed (FIG. 1).
# [1] = test system: renal fibrosis induced by carbon tetrachloride; conditions: Kostallari et al., 2018; cited from earlier work
# [2] = Garcia Fortanet et al., J Med Chem 2016; cited from earlier work
# [3] = after 15 days of treatment, compared to control
smiles,measurement,setting,value
"CC1(N)CCN(c2cnc(-c3cccc(Cl)c3Cl)c(N)n2)CC1 [SHP099, 6-(4-amino-4-methylpiperidin-1-yl)-3-(2,3-dichlorophenyl)pyrazin-2-amine]",body composition,Obese diabetic mice; 15 days of treatment,without any change
same,weight,Obese diabetic mice; 15 days of treatment,without any change
same,fasting blood glucose,Obese diabetic mice; [3],decreased fasting blood glucose
same,glucose tolerance (OGTT),Obese diabetic mice; [3],significant improvement in the glucose tolerance
same,effectiveness in treatment of renal fibrosis,[1],effectiveness in treatment of renal fibrosis
same,oral bioavailability,[2],good
same,tolerance,[2],good tolerance
